In ChEMBL document CHEMBL1201862, “PubChem BioAssay data set” (2004):
Several values for one entry are separate records, joined by “and”; a condition that tells them apart may be missing. Identical values can stand only once.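 Interpolation was linear, between the two tested concentrations surrounding the appropriate level; five concentrations were tested over 48 hours in 96-well plates. At the GI50, growth is halved.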 Activity calls are given as the source filed them. Cut-off read from the data, not from the text of the source: active = GI50 up to about 1.1 µM and inactive = higher.

Experiments:
Experiment in all cases: DTP human tumour cell line panel, 48 h
A549 = test system: A549
CAKI-1 = test system: CAKI-1
HCT-15 = test system: HCT-15
HT-29 = test system: HT-29
IGROV-1 = test system: IGROV-1
KM12 = test system: KM12
M14 = test system: M14
MOLT-4 = test system: MOLT-4
NCI-H226 = test system: NCI-H226
NCI-H522 = test system: NCI-H522
OVCAR-3 = test system: OVCAR-3
RXF 393 = test system: RXF 393
SF-268 = test system: SF-268
SK-MEL-28 = test system: SK-MEL-28
SK-MEL-2 = test system: SK-MEL-2
SK-OV-3 = test system: SK-OV-3
SN12C = test system: SN12C
UACC-62 = test system: UACC-62
CCRF-CEM = test system: CCRF-CEM
A498 = test system: A498

| Compound | GI50 (A549) | GI50 (CAKI-1) | GI50 (HCT-15) | GI50 (HT-29) | GI50 (IGROV-1) | GI50 (KM12) | GI50 (M14) | GI50 (MOLT-4) | GI50 (NCI-H226) | GI50 (NCI-H522) | GI50 (OVCAR-3) | GI50 (RXF 393) | GI50 (SF-268) | GI50 (SK-MEL-28) | GI50 (SK-MEL-2) | GI50 (SK-OV-3) | GI50 (SN12C) | GI50 (UACC-62) | GI50 (CCRF-CEM) | GI50 (A498) |
| --- | --- | --- | --- | --- | --- | --- | --- | --- | --- | --- | --- | --- | --- | --- | --- | --- | --- | --- | --- | --- |
| O=[N+]([O-])c1ccc(-c2nc3cc([N+](=O)[O-])ccc3[nH]2)cc1 | 15.1 µM (inactive) | 32.7 µM (inactive) | 34.9 µM | 28.4 µM (inactive) | 30.5 µM (inactive) | 24.8 µM (inactive) | 21.9 µM (inactive) | 29.9 µM (inactive) | 39.6 µM (inactive) | 11.4 µM (inactive) | 42.1 µM (inactive) | 63.7 µM (inactive) | 44.9 µM (inactive) | 40.6 µM (inactive) | 23.6 µM (inactive) | 34.1 µM (inactive) | 23.9 µM (inactive) | 37 µM (inactive) |  |  |
| COC(=O)[C@@H]1O[C@]12[C@@H](CO[Si](C)(C)C(C)(C)C)O[C@@H](n1cc(C)c(=O)[nH]c1=O)[C@@H]2O[Si](C)(C)C(C)(C)C | 25.5 µM (inactive) | 23.4 µM (inactive) | 4.35 µM | 6.11 µM (inactive) | 5.64 µM (inactive) | 23 µM (inactive) | 19.5 µM (inactive) | 2.84 µM (inactive) | 21 µM (inactive) | 11.9 µM (inactive) | 14.6 µM (inactive) | 7.35 µM (inactive) | 15.4 µM (inactive) | 19.8 µM (inactive) | 15 µM (inactive) | 32.6 µM (inactive) | 13.8 µM (inactive) | 17.9 µM (inactive) | 2.39 µM (inactive) |  |
| Cc1cc(C)c(S(=O)(=O)N(CCCCN)OCCCN)c(C)c1 | 19.3 µM (inactive) | 17.4 µM (inactive) |  | 14.3 µM (inactive) | 13.6 µM (inactive) | 19.5 µM (inactive) | 18.7 µM (inactive) | 11.7 µM (inactive) | 16.5 µM (inactive) | 16.2 µM (inactive) | 18.4 µM (inactive) | 15.2 µM (inactive) | 18.4 µM (inactive) | 18.3 µM (inactive) | 15.1 µM (inactive) | 16.8 µM (inactive) | 18.7 µM (inactive) | 16.4 µM (inactive) | 15.7 µM (inactive) |  |
| C=C1c2c(cc3c(c2O)c(=O)c2ccccc2n3C)OC1(C)C |  | > 100 µM (inactive) | > 100 µM | 37.7 µM (inactive) | 32.7 µM (inactive) |  | > 100 µM (inactive) | > 100 µM (inactive) | 79.4 µM (inactive) | 2.95 µM (inactive) | > 100 µM (inactive) |  | 31.6 µM (inactive) | > 100 µM (inactive) | 40.3 µM (inactive) | 20 µM (inactive) | > 100 µM (inactive) | > 100 µM (inactive) | > 100 µM (inactive) | 30.9 µM (inactive) |
| CC1(O)OC(=O)C2=C1CCC1C2CCC2(C)C(O)CCC12 (configuration not stated) | > 100 µM (inactive) | > 100 µM (inactive) | > 100 µM | > 100 µM (inactive) | > 100 µM (inactive) | > 100 µM (inactive) | > 100 µM (inactive) | > 10 µM (inactive) | > 100 µM (inactive) | > 100 µM (inactive) | > 100 µM (inactive) |  | > 100 µM (inactive) | > 100 µM (inactive) |  |  | > 100 µM (inactive) | 46.3 µM (inactive) | > 100 µM (inactive) | > 100 µM (inactive) |
| COc1ccccc1C1C(Cl)C(=O)N1n1cnc2ccccc2c1=O (configuration not stated) | > 100 µM (inactive) | > 100 µM (inactive) | > 100 µM | > 100 µM (inactive) | > 100 µM (inactive) | > 100 µM (inactive) | > 100 µM (inactive) | > 100 µM (inactive) | > 100 µM (inactive) | > 100 µM (inactive) | > 100 µM (inactive) | > 100 µM (inactive) | > 100 µM (inactive) | > 100 µM (inactive) | > 100 µM (inactive) | > 100 µM (inactive) | > 100 µM (inactive) | > 100 µM (inactive) | > 100 µM (inactive) |  |
| C=C(C)C(=O)[C@@]12C(=O)[C@@H](C)CC[C@H]1[C@H](C)C[C@@H]2C=C(C)C | 32.7 µM (inactive) | 29.4 µM (inactive) | 19.9 µM | 14.6 µM (inactive) | 27.5 µM (inactive) | 23.9 µM (inactive) | 55.6 µM (inactive) | 15.8 µM (inactive) | < 0.01 µM (active) | 14.6 µM (inactive) | 19.5 µM (inactive) |  | 17.2 µM (inactive) | 34 µM (inactive) | 13.8 µM (inactive) | 37 µM (inactive) | 20.8 µM (inactive) | 22.9 µM (inactive) | 23.1 µM (inactive) | 52.4 µM (inactive) |
| COc1cc(C2C(C(=O)O)=C(COC(C)=O)Oc3cc4c(cc32)OCO4)cc(OC)c1OC (configuration not stated) | > 100 µM (inactive) | > 100 µM (inactive) | > 100 µM | > 100 µM (inactive) | > 100 µM (inactive) |  | > 100 µM (inactive) | > 100 µM (inactive) |  |  | > 100 µM (inactive) | > 100 µM (inactive) |  | > 100 µM (inactive) | > 100 µM (inactive) | > 100 µM (inactive) | > 100 µM (inactive) | > 100 µM (inactive) | > 100 µM (inactive) |  |
| COc1ccc(/C=C2\CCNC2=O)cc1 | > 100 µM (inactive) | > 100 µM (inactive) | > 100 µM | > 100 µM (inactive) | > 100 µM (inactive) | > 100 µM (inactive) |  | > 100 µM (inactive) | > 100 µM (inactive) | > 100 µM (inactive) | > 100 µM (inactive) |  | > 100 µM (inactive) | > 100 µM (inactive) | > 100 µM (inactive) | > 100 µM (inactive) | > 100 µM (inactive) | > 100 µM (inactive) | > 100 µM (inactive) | > 53.7 µM (inactive) |
| CC(C)(C)N1C(C(=O)c2ccccc2)C1c1ccccc1 (configuration not stated) | > 100 µM (inactive) |  | > 100 µM | > 100 µM (inactive) | > 100 µM (inactive) | > 100 µM (inactive) | > 100 µM (inactive) | > 100 µM (inactive) | > 100 µM (inactive) | > 100 µM (inactive) | > 100 µM (inactive) | > 100 µM (inactive) |  | > 100 µM (inactive) |  | > 100 µM (inactive) | > 100 µM (inactive) | > 100 µM (inactive) | > 100 µM (inactive) |  |
| N#C/C(N)=C(C#N)/N=C/NCc1ccccc1 | > 100 µM (inactive) | > 100 µM (inactive) | > 100 µM | > 100 µM (inactive) | > 100 µM (inactive) | > 100 µM (inactive) | > 100 µM (inactive) | > 100 µM (inactive) | > 100 µM (inactive) | > 100 µM (inactive) | > 100 µM (inactive) |  | > 100 µM (inactive) | > 100 µM (inactive) | 38.4 µM (inactive) | > 100 µM (inactive) | > 100 µM (inactive) | 95.5 µM (inactive) | > 100 µM (inactive) | > 100 µM (inactive) |
| O=C(O)C1(C(O)c2ccccc2)SCCCS1 (configuration not stated) | > 10 µM (inactive) |  | > 10 µM | > 10 µM (inactive) | > 10 µM (inactive) | > 10 µM (inactive) | > 10 µM (inactive) | > 10 µM (inactive) | > 10 µM (inactive) |  | > 10 µM (inactive) | > 10 µM (inactive) | > 10 µM (inactive) | > 10 µM (inactive) | > 10 µM (inactive) | > 10 µM (inactive) | > 10 µM (inactive) | > 10 µM (inactive) | > 10 µM (inactive) | > 10 µM (inactive) |
| Cc1nc2c(sc(=S)n2-c2ccccc2)c(=O)[nH]1 | > 100 µM (inactive) |  |  | > 100 µM (inactive) | > 100 µM (inactive) | > 100 µM (inactive) |  | > 100 µM (inactive) | > 100 µM (inactive) | > 100 µM (inactive) | > 100 µM (inactive) |  | > 100 µM (inactive) | > 100 µM (inactive) | > 100 µM (inactive) | > 100 µM (inactive) |  | > 100 µM (inactive) | > 100 µM (inactive) | > 100 µM (inactive) |
| CCCCCCCCC(O)c1ccc(/C=C\C(O)CCCC(=O)O)s1 (configuration not stated) | > 100 µM (inactive) |  | > 100 µM | > 100 µM (inactive) | > 100 µM (inactive) | > 100 µM (inactive) | > 100 µM (inactive) | > 100 µM (inactive) | > 100 µM (inactive) | > 100 µM (inactive) | > 100 µM (inactive) | > 100 µM (inactive) | > 100 µM (inactive) | > 100 µM (inactive) | > 100 µM (inactive) | > 100 µM (inactive) | > 100 µM (inactive) | > 100 µM (inactive) | > 100 µM (inactive) |  |
| O=c1c(-c2ccc(O)cc2)coc2cc(O)cc(O)c12 [GENISTEIN] | 62.4 µM (inactive) |  | 72.9 µM | > 100 µM (inactive) | 71.6 µM (inactive) | > 100 µM (inactive) | > 100 µM (inactive) | 40.4 µM (inactive) | 74.1 µM (inactive) | 36.4 µM (inactive) |  |  | > 100 µM (inactive) | > 100 µM (inactive) |  |  | 52.5 µM (inactive) | > 100 µM (inactive) | > 10 µM (inactive) |  |
| COc1cc(NC(C)CCCN)c2ncccc2c1 (configuration not stated) [PRIMAQUINE PHOSPHATE] | > 100 µM (inactive) | 59 µM (inactive) and 62.4 µM (inactive) |  | 37.1 µM (inactive) and 28.8 µM (inactive) | 51.4 µM (inactive) and > 88.7 µM (inactive) | > 81.5 µM (inactive) and 73.3 µM (inactive) |  | 25.2 µM (inactive) and 39.4 µM (inactive) | > 68.5 µM (inactive) and 97.9 µM (inactive) | 90.6 µM (inactive) and 52.1 µM (inactive) | 22.6 µM (inactive) and 43.7 µM (inactive) |  | 94.4 µM (inactive) and 79.3 µM (inactive) |  | 26.9 µM (inactive) and 45.1 µM (inactive) |  |  |  | 26.7 µM (inactive) and 45.8 µM (inactive) |  |
